Laboratory results published in patent US6867207B2, “IL-5 inhibiting 6-azauracil derivatives” (Janssen Pharmaceutica N.V., priority 1997, dated 2005).

test system: IL-5 production; test: In vitro inhibition of IL-5 production in human blood (phytohemagglutinin-stimulated whole blood, ELISA); format: cell-based; settings: test dose 1×10^−6 M, 48 hours;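 further: values marked with an asterisk were tested at 10 µM and unmarked values at 1 µM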
In short: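 Percent inhibition of IL-5, quantified by ELISA in cell-free supernatants, is given at a single dose of 1×10^−6 M (or 1×10^−5 M). Threefold-diluted human whole blood from healthy men received compound for 60 min at 37° C before 48 h PHA stimulation at 2 μg/mL.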

Row | SMILES | % inh. (percentage inhibition of IL-5 production) [%]
1 | Cc1ccccc1-c1nnc(C(c2ccc(Cl)cc2)c2c(Cl)cc(-n3ncc(=O)[nH]c3=O)cc2Cl)o1 (racemic) [Compound 188] | 95
2 | O=c1cnn(-c2ccc(C(Sc3nc4ccccc4o3)c3ccc(Cl)cc3)c(Cl)c2)c(=O)[nH]1 (racemic) [Compound 71] | 84
3 | O=c1cnn(-c2ccc(C(Sc3ccncc3)c3ccc(Cl)cc3)c(Cl)c2)c(=O)[nH]1 (racemic) [Compound 65] | 50
4 | COc1cc(C(c2nc(-c3ccccc3)cs2)c2c(Cl)cc(-n3ncc(=O)[nH]c3=O)cc2Cl)ccc1Cl (racemic) [Comp 289] | 96
5 | COc1cc(-n2ncc(=O)[nH]c2=O)ccc1C(c1ccc(Cl)cc1)c1sc(C)nc1-c1ccccc1 (racemic) [Compound 153] | 72
6 | O=C(Cc1sc(C(c2ccc(Cl)cc2)c2c(Cl)cc(-n3ncc(=O)[nH]c3=O)cc2Cl)nc1-c1ccccc1)N1CCOCC1 (racemic) [Comp 276] | 91
7 | O=c1cnn(-c2cc(Cl)c(C(Nc3nc(-c4ccccc4)cs3)c3ccc(Cl)c(C(F)(F)F)c3)c(Cl)c2)c(=O)[nH]1 (racemic) [Compound 411] | 94
8 | COCCNC(=O)Cc1sc(C(c2ccc(Cl)cc2)c2c(Cl)cc(-n3ncc(=O)[nH]c3=O)cc2Cl)nc1-c1ccccc1 (racemic) [Comp 320] | 94
9 | O=c1cnn(-c2ccc(C(c3ccc(Cl)cc3)c3nc(-c4ccccc4)no3)c(Cl)c2)c(=O)[nH]1 (racemic) [Compound 125, (±)-2-[(3-chloro-4-[(4-chlorophenyl)(3-phenyl-1,2,4-oxadiazol-5-yl)methyl]phenyl]-1,2,4-triazine-3,5(2H,4H)-dione] | 52
10 | CCOC(=O)C(=O)Nc1cccc(-c2nnc(C(c3ccc(Cl)cc3)c3c(Cl)cc(-n4ncc(=O)[nH]c4=O)cc3Cl)o2)c1.O (racemic) [Compound 219] | 8
11 | CCOC(=O)N1CCC(c2nnc(C(c3ccc(Cl)cc3)c3c(Cl)cc(-n4ncc(=O)[nH]c4=O)cc3Cl)o2)CC1 (racemic) [Compound 191] | 19
12 | Cc1sc(C(c2ccc(Cl)c(C(F)(F)F)c2)c2c(Cl)cc(-n3ncc(=O)[nH]c3=O)cc2Cl)nc1-c1ccccc1 (racemic) [Comp 246] | 94
13 | O=c1cnn(-c2ccc(C(O)(c3ccc(Cl)cc3)c3nc4ccccc4s3)c(Cl)c2)c(=O)[nH]1 (centres unmarked) [Comp 111] | 61
14 | O=c1cnn(-c2ccc(C(c3ccc(Cl)cc3)c3scnc3-c3cccc(F)c3)c(Cl)c2)c(=O)[nH]1 (racemic) [Compound 148] | 79
15 | O=c1cnn(-c2cc(Cl)c(C(Sc3nc4cccnc4s3)c3ccc(Cl)cc3)c(Cl)c2)c(=O)[nH]1 (centres unmarked) [Compound 376] | 92
16 | O=c1cnn(-c2cc(Cl)c(C(c3ccc(Cl)cc3)c3nc(-c4cccc(F)c4)cs3)c(Cl)c2)c(=O)[nH]1 (single isomer, unassigned) [Comp 319] | 84
17 | O=c1cnn(-c2cc(Cl)c(C(Sc3nc(-c4ccccc4)cs3)c3ccc(Cl)c(C(F)(F)F)c3)c(Cl)c2)c(=O)[nH]1 (centres unmarked) [Compound 381] | 95
18 | Cc1ccsc1-c1nnc(C(c2ccc(Cl)cc2)c2c(Cl)cc(-n3ncc(=O)[nH]c3=O)cc2Cl)o1 (racemic) [Compound 203] | 82
19 | CCOC(=O)c1sc(C(c2ccc(Cl)cc2)c2c(Cl)cc(-n3ncc(=O)[nH]c3=O)cc2Cl)nc1-c1ccccc1 (racemic) [Comp 29] | 95
20 | O=c1cnn(-c2ccc(C(Sc3nc4ccccc4s3)c3ccc(Cl)cc3)c(Cl)c2)c(=O)[nH]1 (racemic) [Compound 77] | 65
21 | CN(CCc1ccccc1)Cc1sc(C(c2ccc(Cl)cc2)c2c(Cl)cc(-n3ncc(=O)[nH]c3=O)cc2Cl)nc1-c1ccccc1 (racemic) [Comp 332] | 86
22 | O=c1cnn(-c2ccc(C(Sc3nc4cccnc4s3)c3ccc(Cl)cc3)c(Cl)c2)c(=O)[nH]1 (racemic) [Compound 81] | 76

Row | SMILES | % inh. (percentage inhibition of IL-5 production) [%]
23 | Cc1nc(-c2ccc(Cl)cc2)c(C(c2ccc(Cl)cc2)c2ccc(-n3ncc(=O)[nH]c3=O)cc2Cl)s1 (racemic) [Compound 149] | 89
24 | O=c1cnn(-c2ccc(C(C3=C(c4ccccc4)SC4=NCCN43)c3ccc(Cl)cc3)c(Cl)c2)c(=O)[nH]1 (centres unmarked) [Comp 433] | 53
25 | O=c1cnn(-c2cc(Cl)c(C(c3ccc(Cl)cc3)c3nc(-c4ccccc4)c(C4CCCCC4)s3)c(Cl)c2)c(=O)[nH]1 (racemic) [Comp 284] | 91
26 | CCOC(=O)Cc1nnc(C(c2ccc(Cl)cc2)c2c(Cl)cc(-n3ncc(=O)[nH]c3=O)cc2Cl)o1 (racemic) [Compound 176] | 3
27 | O=c1cnn(-c2ccc(C(c3ccc(Cl)cc3)c3nc(-c4ccccc4)sc3-c3ccccc3)c(Cl)c2)c(=O)[nH]1 (racemic) [Compound 373] | 40
28 | O=c1cnn(-c2cc(Cl)c(C(c3ccc(Cl)cc3)c3nnc(-c4ccccc4)s3)c(Cl)c2)c(=O)[nH]1 (centres unmarked) [Comp 427] | 72
29 | NS(=O)(=O)Nc1cccc(-c2nnc(C(c3ccc(Cl)cc3)c3c(Cl)cc(-n4ncc(=O)[nH]c4=O)cc3Cl)o2)c1.O (racemic) [Compound 221] | −2
30 | O=C(Cc1sc(C(c2ccc(Cl)cc2)c2c(Cl)cc(-n3ncc(=O)[nH]c3=O)cc2Cl)nc1-c1ccccc1)NC1CCN(Cc2ccccc2)CC1 (racemic) [Comp 326] | 89
31 | O=c1cnn(-c2cc(Cl)c(C(c3ccc(Cl)cc3)c3nc(-c4cccc(F)c4)cs3)c(Cl)c2)c(=O)[nH]1 (racemic) [Comp 21] | 91
32 | O=c1cnn(-c2cc(Cl)c(C(c3ccc(Cl)c(C(F)(F)F)c3)c3nc(-c4ccccc4Cl)cs3)c(Cl)c2)c(=O)[nH]1 (racemic) [Comp 254] | 86
33 | Cc1sc(SC(c2ccc(Cl)c(C(F)(F)F)c2)c2c(Cl)cc(-n3ncc(=O)[nH]c3=O)cc2Cl)nc1-c1ccccc1 (racemic) [Compound 405] | 80
34 | Cc1nc(-c2ccccc2Cl)sc1C(c1ccc(Cl)cc1)c1c(Cl)cc(-n2ncc(=O)[nH]c2=O)cc1Cl (racemic) [Compound 137] | 64
35 | O=c1cnn(-c2cc(Cl)c(C(c3ccc(Cl)cc3)c3ncc(-c4ccccc4)o3)c(Cl)c2)c(=O)[nH]1 (racemic) [Comp 105] | 88
36 | Cc1sc(C(c2ccc(Cl)cc2)c2c(Cl)cc(-n3ncc(=O)[nH]c3=O)cc2Cl)nc1-c1c(F)cccc1F (racemic) [Comp 268] | 83
37 | Nc1cc(N)nc(SC(c2ccc(Cl)cc2)c2ccc(-n3ncc(=O)[nH]c3=O)cc2Cl)n1 (racemic) [Compound 70] | 51
38 | Cc1sc(C(c2ccc(Cl)cc2)c2c(Cl)cc(-n3ncc(=O)[nH]c3=O)cc2Cl)nc1-c1ccccc1F (racemic) [Comp 259] | 95
39 | O=C(NC(c1ccc(Cl)cc1)c1ccc(-n2ncc(=O)[nH]c2=O)cc1Cl)c1ccccc1 (racemic) [Compound 47, (±)-N-[[2-chloro-4-(4,5-dihydro-3,5-dioxo-1,2,4-triazin-3(2H)-yl)phenyl](4-chlorophenyl)methyl]benzamide] | 33
40 | O=C(c1ccccc1)c1sc(C(c2ccc(Cl)cc2)c2c(Cl)cc(-n3ncc(=O)[nH]c3=O)cc2Cl)nc1-c1ccccc1 (racemic) [Comp 273] | 77
41 | Nc1cc(SC(c2ccc(Cl)cc2)c2ccc(-n3ncc(=O)[nH]c3=O)cc2Cl)nc(N)n1 (racemic) [Compound 68] | 60
42 | CC(c1ccc(Cl)c(C(F)(F)F)c1)(c1nc(-c2ccccc2)c(-c2ccccc2)s1)c1c(Cl)cc(-n2ncc(=O)[nH]c2=O)cc1Cl (racemic) [Comp 237] | 82
43 | O=c1cnn(-c2ccc(C(Sc3cccc[n+]3[O-])c3ccc(Cl)cc3)c(Cl)c2)c(=O)[nH]1 (racemic) [Compound 73] | 21

same assay, conditions: test dose 1×10^−6 M, 48 hours, read-out: % inh. (percentage inhibition of IL-5 production)

Row | SMILES | inhibition at 1 µM [%]
44 | O=c1cnn(-c2cc(Cl)c(C(Sc3nnc(-c4ccccc4)o3)c3ccc(Cl)cc3)c(Cl)c2)c(=O)[nH]1 (racemic) [Compound 406, (±)-2-[3,5-dichloro-4-[(4-chlorophenyl)[(5-phenyl-1,3,4-oxadiazol-2-yl)thio]methyl]phenyl]-1,2,4-triazine-3,5(2H,4H)-dione] | 84
45 | Cc1nc(C(c2ccc(Cl)cc2)c2ccc(-n3ncc(=O)[nH]c3=O)cc2Cl)no1 (racemic) [Compound 126, (±)-2-[3-chloro-4-[(4-chlorophenyl)(5-methyl-1,2,4-oxadiazol-3-yl)methyl]phenyl]-1,2,4-triazine-3,5(2H,4H)-dione] | 40
46 | Cn1ccnc1C(c1ccc(Cl)cc1)c1ccc(-n2ncc(=O)[nH]c2=O)cc1Cl (racemic) [Compound 123, (±)-2-[3-chloro-4-[(4-chlorophenyl)(1-methyl-1H-imidazol-2-yl)methyl]phenyl]-1,2,4-triazine-3,5(2H,4H)-dione] | 13
47 | O=c1cnn(-c2cc(Cl)c(C(Sc3[nH]c(=S)[nH]c3-c3ccccc3)c3ccc(Cl)c(C(F)(F)F)c3)c(Cl)c2)c(=O)[nH]1 (racemic) [Compound 400, (±)-2-[3,5-dichloro-4-[[4-chloro-3-(trifluoromethyl)phenyl][(2,3-dihydro-5-phenyl-2-thioxo-1H-imidazol-4-yl)thio]-methyl]phenyl]-1,2,4-triazine-3,5(2H,4H)-dione] | 76
